The values below come from patent publication US20070225213A1, “Nucleic acid carriers for delivery of therapeutic agents” (priority 2006, published 2007).

The test system of this assay is MCF7. As to the kind of experiment: Toxicity of NAC-MTN vs CD-MTN and MTN, MTT (Example 9, EX042105). It is filed as cell-based, human. Here is the method:
FIG. 4. […] The relative toxicity of NAC-MTN was compared with MTN and CD-MTN in four cell lines, MCF7(breast cancer), COS7green monkey kidney (SV40 transformed), 3T3 (mouse fibroblast), and BHK21(hamster kidney). Cells were treated with identical amounts of MTN formulated as either NAC-MTN, MTN only, or poly-beta-cyclodextrin-sulfylbutylether(CD-MTN). After an incubation period, cell viability was assayed with MTT assay. The differences in toxicity between NAC-MTN and MTN or NAC-MTN and CD-MTN are shown as % difference. Greater percentage difference correlates to more reduction in relative NAC-MTN toxicity.
MCF7, COS7, 3T3, and BHK21 cells were plated out in duplicate rows of equivalent cell density in 100ul final volume. Initial cell densities were 2000 cells/well.
Preparing NAC-MTN, CD-MTN, and MTN only. Combined 180 ul of 0.05 mg/ml MTN with […] 0.1 mg/ml herring sperm genomic DNA (HSGDNA, Promega), 1500 ul of 2× DMEM media containing 20% FBS to give 3.0 ml final volume and 12% final drug loading in the dsDNA. For MTN only, 180 ul of MTN was combined with 1320 ul H2O and 1500 ul 2× DMEM. […]
Aspirated media in plate and replaced with 50 ul of 0.5 mg/ml MTT in 1× media, incubated 3 hours, aspirated, air dried 5 min and dissolved in 100 ul of isopropyl, read OD at A570. […]

SMILES strings stand for the structures.

Take `O=C1c2c(O)ccc(O)c2C(=O)c2c(NCCNCCO)ccc(NCCNCCO)c21` [MTN, mitoxantrone]: the “% tox. relative to media only” value (2 uM final MTN, MTT 48 hours after adding samples) came out at 48.39%. The toxic effect entry (after 24 hours, 2 uM MTN) is given as “no toxic effect”.
